{"source": "patent US12564188B2", "about": "“Hydrogel beads for controlled uptake and release of cryoprotective agents” (The General Hospital Corporation, priority 2020, dated 2026)", "key": {"[1]": {"assay": "DMSO release from hydrogel beads into saline, osmolality by micro-osmometer", "format": "physicochemical", "conditions": "room temperature, 5.0 μL beads incubated in 15% DMSO", "experimental": "Here, beads 1-5 mm in diameter were synthesized using microfluidic droplet generation and 2% polyacrylamide/bis-acrylamide, following standard oil emulsion methods^43, and beads were synthesized using calcium alginate. Uniform calcium-alginate hydrogel beads were synthesized by dripping 5% alginate from a needle with a surrounding nitrogen gas sheath into a CaCl2 bath. Bead size and uniformity was confirmed by imaging. 5.0 μL beads were incubated for four hours in a 15% DMSO solution, then strained, blotted, and weighed. Beads were then suspended in saline for several minutes under gentle mixing, and the rate of DMSO release was measured over time by sampling the solution and measuring osmolality by micro-osmometer. The rate of release was compared with numerical simulations of diffusion based on the average bead size (FIG. 3). The diffusion coefficient of DMSO within the gel was measured to be 1.0×10^−5 cm^2s^−1 at room temperature, matching expected values^41,42.\nExpected outcomes and alternative approaches: The key metric of success is the ability to reliably add and then remove CPA from a given sample solution at tunable rates which are predicted by modeling. Bead geometry alone is sufficient to achieve gradual CPA uptake and release. The sample recovery was about 96% without any dilution in these experiments."}, "[2]": {"test_system": "patients", "conditions": "cited from earlier work"}, "[3]": {"conditions": "DMSO implicated, co-injection with CAR T cells"}}, "note": "Like-named read-outs stand apart in the source and are kept apart here."}
{"smiles": "C[S+](C)[O-]", "note": "[DMSO, dimethyl sulfoxide]", "values": [{"measurement": "diffusion coefficient of DMSO within the gel", "setting": "[1]", "result": "1.0×10^−5 cm^2s^−1"}, {"measurement": "aphasia", "setting": "[2]; [3]", "result": 18, "unit": "%"}, {"measurement": "delirium", "setting": "[2]; [3]", "result": 29, "unit": "%"}, {"measurement": "encephalopathy", "setting": "[2]; [3]", "result": 34, "unit": "%"}, {"measurement": "tremors", "setting": "[2]; [3]", "result": 29, "unit": "%"}, {"measurement": "patients experiencing nausea and vomiting", "setting": "[2]; co-injection of 10-20 mL DMSO along with CAR T cells", "result": "40-60%"}, {"measurement": "patients experiencing nausea and vomiting", "setting": "[2]; co-injection of approximately 10 mL DMSO along with thawed CAR T cell product", "result": "up to 60%"}]}
